Experimental data published in ChEMBL document CHEMBL1137177, “Synthesis of 2',5'-oligoadenylate analogs containing an adenine acyclonucleoside and their ability to activate human RNase L” (Bioorg Med Chem Lett, 2004).
pEC50: −log10 of the molar value.

Test: Effective concentration for activation of RNase L

pEC50 | SMILES
8.05 | Nc1ncnc2c1ncn2C[C@H](OP(=O)(O)OC[C@H]1O[C@@H](n2cnc3c(N)ncnc32)[C@H](OP(=O)(O)OC[C@H]2O[C@@H](n3cnc4c(N)ncnc43)[C@H](O)[C@@H]2O)[C@@H]1O)[C@H](O)CO[PH](=O)O[C@@H]1[C@H](O)[C@@H](COP(=O)(O)O)O[C@H]1n1cnc2c(N)ncnc21 (stereo partly drawn)
9.00 | Nc1ncnc2c1ncn2[C@@H]1O[C@H](COP(=O)(O)O[C@@H]2[C@H](O)[C@@H](COP(=O)(O)O[C@@H]3[C@H](O)[C@@H](COP(=O)(O)O[C@@H]4[C@H](O)[C@@H](COP(=O)(O)O)O[C@H]4n4cnc5c(N)ncnc54)O[C@H]3n3cnc4c(N)ncnc43)O[C@H]2n2cnc3c(N)ncnc32)[C@@H](O)[C@H]1O
8.77 | Nc1ncnc2c1ncn2C[C@H](OP(=O)(O)OC[C@H]1O[C@@H](n2cnc3c(N)ncnc32)[C@H](O)[C@@H]1O)[C@H](O)COP(=O)(O)O[C@@H]1[C@H](O)[C@@H](CO[PH](=O)O[C@@H]2[C@H](O)[C@@H](COP(=O)(O)O)O[C@H]2n2cnc3c(N)ncnc32)O[C@H]1n1cnc2c(N)ncnc21 (stereo partly drawn)
